Results from publication PMC9727064, “Performance assessment and economic analysis of a human Liver-Chip for predictive toxicology” (Communications Medicine, 2022).
Where two headings read alike, the source gives them in different places.

Experiments:
[1] = system: human Liver-Chip (primary human hepatocytes); assay: Liver-Chip alanine transaminase (ALT) release in top channel effluent (ELISA); type: cell-based; settings: for ALT change in words: Liver-Chip effluent
Text: (§1) Cycles 1 to 4 tested 6–8 concentrations in duplicate for each of 10–13 drugs. To determine which sampling strategy was optimal for cycles 1 to 4 (16 doses × 1 replicate, 8 × 2, 5 × 3, or 4 × 4), we generated three different “dose-response” synthetic datasets, each distorted by different noise levels (low, medium, or high). For each of these datasets, we performed curve-fitting analyses and calculated the Root Mean Square Error between the “true” and estimated IC50 parameter. […] Some drugs were also repeated across cycles (on different donors or at different concentrations) to ensure experimental robustness. However, to replicate a more typical study design likely to be carried out by scientists in the pharmaceutical industry, we created cycle 5 with 6 drugs, where each was tested in 4 concentrations in triplicate. For each cycle, chips were dosed with drug over 8 days (referred to as Day 0 through Day 7).
(§2) The drug dosing concentrations were determined from the unbound human Cmax of each drug. First, the expected fraction of drug unbound in media with 2% FBS was extrapolated from plasma binding data for each drug. Dosing concentrations were then back calculated such that the unbound fraction in media would reflect relevant multiples of unbound human Cmax (Supplementary Data 1).
(§3) On the first dosing day (Day 0), all chips were imaged using the ECHO microscope. Five hundred microliters of effluent was collected from all four reservoirs of the pod and placed in a labeled 96-well plate. After collection, all the remaining media was carefully aspirated before dosing with 3.8 mL of corresponding dosing solution. Dosing occurred on study days 0, 2, and 4 for chips flowing at 30 µL/h, and on days 0, 1, 2, 3, 4, 5, and 6 for chips flowing at 150 µL/h. Effluent collection occurred on days 1, 3, and 7.
(§4) Top channel outlet effluents were analyzed to quantify albumin and alanine transaminase (ALT) levels on days 1, 3, and 7 using sandwich ELISA kits (Abcam, Albumin ab179887, ALT ab234578) according to vendor-provided protocols. Frozen (−80 °C) effluent samples were thawed overnight at 4 °C prior to assay. The Hamilton Vantage liquid handling platform was used to manage effluent dilutions (1:500 for albumin, neat for ALT), preparation of standard curves, and addition of antibody cocktail. Absorbance at 450 nm was measured using the SynergyNeo Microplate Reader (BioTek).

[2] = human, total plasma Cmax, cited from earlier work
[3] = system: 3D spheroid cultures of primary human hepatocytes; settings: cited from earlier work; for Spheroid MOS: 3D hepatic spheroids, previously published data; for Spheroid false negative: Yes/No, also No for drugs not tested in spheroid; for Toxicity detection in 3D hepatic spheroids: threshold 50
[4] = system: human Liver-Chip (primary human hepatocytes); assay: Liver-Chip albumin production in top channel effluent (ELISA); type: cell-based; settings: for Albumin change in words: Liver-Chip effluent
Text: as §1, §2, §3, §4
All statistical analyses were conducted in R[21] (version 4.1.2) and figures were produced using the R package ggplot2[22] (version 3.3.5). The dose-response analysis (Fig. 4) was carried out using the popular drc R package developed by Ritz et al.[23] using the generalized log-logistic dose-response model. The error bars in Figs. 3 and 4, correspond to the standard errors of the mean. The circles in Fig. 3 correspond to the samples used to calculate the corresponding statistics. The analysis of significance in Fig. 3 was performed using paired t-test across different days (same donor) and unpaired t-test across different donors (same day). In Fig. 3 the number of samples used were n = 3 for donor two, and n = 4 for donor three. For both donors, the number of the freshly thawed hepatocyte samples used to estimate the corresponding log2(Fold Change) were n = 4. Finally, the analysis of significance in Fig. 3 was performed using paired t-test.

[5] = lowest concentration causing an increase in ALT protein, donor 1
[6] = lowest concentration causing an increase in ALT protein, donor 2
[7] = lowest concentration causing an increase in ALT protein
[8] = concentration causing a 50% reduction in albumin production
[9] = expanded drug list, lowest concentration causing an increase in ALT release, donor 1
[10] = expanded drug list, lowest concentration causing an increase in ALT release, donor 2
[11] = ref Vorrink, S. U., Zhou, Y., Ingelman- Sundberg, M. & Lauschke, V.M. (30)
[12] = expanded drug list, lowest multiplier causing a 50% reduction in albumin production
[13] = reference data from the literature, no reference

Row | SMILES | ALT Donor 1 [1, 5] | ALT Donor 2 [1, 6] | Spheroid MOS [3] | Spheroid false negative [3] | Albumin IC50 Donor 1 [4, 8] | Albumin IC50 Donor 2 [4, 8] | ALT Donor 1 [1, 9] | other results
1 | COC(c1ccccc1)(c1ccccc1)[C@H](Oc1nc(C)cc(C)n1)C(=O)O [Ambrisentan] | >300 multiples of the unbound human Cmax | >1000 multiples of the unbound human Cmax | >127 | No | >300 multiples of the unbound human Cmax | >1000 multiples of the unbound human Cmax | – | ALT Donor 3 [1, 7]: >300 multiples of the unbound human Cmax; Human Cmax Total ([2]; ref Proctor, W.R. et al. (29)): 790 nM; Albumin IC50 Donor 3 [4, 8]: >300 multiples of the unbound human Cmax
2 | C=C[C@@H]1C[C@]1(NC(=O)[C@@H]1C[C@@H](Oc2ncc(OC)c3ccc(Cl)cc23)CN1C(=O)[C@@H](NC(=O)OC(C)(C)C)C(C)(C)C)C(=O)NS(=O)(=O)C1CC1 [Asunaprevir] | – | – | – | No | – | – | > 1000 unbound human Cmax multiplier | ALT change in words [1]: no elevation of ALT; Human Cmax Total ([2]; ref Schulz, M. & Schmoldt, A. (64)): 764.4 nM; Albumin change in words [4]: concentration and time-dependent changes
3 | CC(C(=O)O)c1ccc2oc(-c3ccc(Cl)cc3)nc2c1 (stereo not shown) [Benoxaprofen] | – | – | >0.7 | Yes | – | – | > 100 unbound human Cmax multiplier | ALT Donor 2 [1, 10]: 100 unbound human Cmax multiplier; Human Cmax Total ([2]; ref Chatsiricharoenkul, S., Niyomnaitham, Pongnarin, P., Sathirakul, K. & Kongpatanakul, S. (66)): 149100 nM
4 | CCN(CC)C(=O)/C(C#N)=C/c1cc(O)c(O)c([N+](=O)[O-])c1 [Entacapone] | >300 multiples of the unbound human Cmax | – | 46.5 | No | >300 multiples of the unbound human Cmax | – | – | Human Cmax Total ([2]; ref Lombardo, F., Berellini, G. & Obach, R. S. (70)): 3300 nM
5 | O=c1[nH]c(=O)n([C@@H]2O[C@H](CO)[C@@H](O)[C@@H]2F)cc1I [FIRU] | – | – | – | No | >300 multiples of the unbound human Cmax | >300 multiples of the unbound human Cmax | – | ALT Donor 1 [1]: >300 multiples of the unbound human Cmax; ALT Donor 2 [1]: >300 multiples of the unbound human Cmax; Human Cmax Total [2, 11]: *0.64µM
6 | O=c1[nH]c(=O)n([C@@H]2O[C@H](CO)[C@@H](O)[C@@H]2F)cc1I [Fialuridine] | >300 multiples of the unbound human Cmax | >300 multiples of the unbound human Cmax | 12.3 | No | <0.1 multiples of the unbound human Cmax | <1 multiples of the unbound human Cmax | – | Human Cmax Total [2, 11]: 640 nM
7 | CC(CCc1ccccc1)NCC(O)c1ccc(O)c(C(N)=O)c1 (stereo not shown) [Labetalol] | – | – | – | Yes | – | – | > 100 unbound human Cmax multiplier | ALT Donor 2 [1, 10]: 100 unbound human Cmax multiplier; Human Cmax Total [2, 11]: 2680 nM; Albumin IC50 Donor 1 [4, 12]: 26 unbound human Cmax multiplier; Albumin IC50 Donor 2 [4, 12]: 40 unbound human Cmax multiplier
8 | O=C(NC1CCN(CCCCC2(C(=O)NCC(F)(F)F)c3ccccc3-c3ccccc32)CC1)c1ccccc1-c1ccc(C(F)(F)F)cc1 [Lomitapide] | – | – | – | No | – | – | > 1000 unbound human Cmax multiplier | Human Cmax Total ([2]; ref Dawson, S., Stahl, Paul, N., Barber, J. & Kenna, J. G. (71)): 1.7 nM; Albumin IC50 Donor 1 [4, 12]: 4 unbound human Cmax multiplier
9 | CCc1nn(CCCN2CCN(c3cccc(Cl)c3)CC2)c(=O)n1CCOc1ccccc1 [Nefazodone] | 300 multiples of the unbound human Cmax | – | 6.8 | No | 140 multiples of the unbound human Cmax | – | – | –
10 | Cc1cc2c(s1)Nc1ccccc1N=C2N1CCN(C)CC1 [Olanzapine] | >300 multiples of the unbound human Cmax | >300 multiples of the unbound human Cmax | – | No | – | – | – | ALT Donor 3 [1, 7]: >300 multiples of the unbound human Cmax; Human Cmax Total ([2]; ref Brunton, L. L., Hilal-Dandan, R. & Knollmann, B. C. (72)): 0.09 nM
11 | CCc1ccc(CCOc2ccc(CC3SC(=O)NC3=O)cc2)nc1 (stereo not shown) [Pioglitazone] | >300 multiples of the unbound human Cmax | >300 multiples of the unbound human Cmax | > 5.3 | Yes | 277 multiples of the unbound human Cmax | >300 multiples of the unbound human Cmax | – | Human Cmax Total ([2]; ref Xu, J. J. et al. (36)): 3000 nM
12 | Cc1cc2c(cc1CC(=O)c1sccc1S(=O)(=O)Nc1onc(C)c1Cl)OCO2 [Sitaxsentan] | 300 multiples of the unbound human Cmax | 300 multiples of the unbound human Cmax | 8.7 | No | 4.4 multiples of the unbound human Cmax | 164 multiples of the unbound human Cmax | – | ALT Donor 3 [1, 7]: 100 multiples of the unbound human Cmax; Albumin IC50 Donor 3 [4, 8]: >100 multiples of the unbound human Cmax
13 | Cc1cn([C@H]2C=C[C@@H](CO)O2)c(=O)[nH]c1=O [Stavudine] | – | – | >144 | Yes | – | – | 300 unbound human Cmax multiplier | ALT Donor 2 [1, 10]: > 300 unbound human Cmax multiplier; Human Cmax Total ([2]; ref Xu, J. J. et al. (36)): 3460 nM; Toxicity detection in 3D hepatic spheroids [3]: not detected as toxic drugs in spheroids; Albumin IC50 Donor 1 [4, 12]: > 60 unbound human Cmax multiplier; Albumin IC50 Donor 2 [4, 12]: 132 unbound human Cmax multiplier
14 | Nc1c2c(nc3ccccc13)CCCC2 [Tacrine] | – | – | 696 | Yes | – | – | > 300 unbound human Cmax multiplier | ALT change in words [1]: not associated with any release of ALT; ALT Donor 2 [1, 10]: > 1000 unbound human Cmax multiplier; Human Cmax Total ([2]; ref Xu, J. J. et al. (36)): 100 nM; Toxicity detection in 3D hepatic spheroids [3]: not detected as toxic drugs in spheroids; Albumin change in words [4]: not associated with any release of ALT or decline in albumin
15 | CC[C@H]1OC(=O)[C@H](C)C(=O)[C@H](C)[C@@H](O[C@@H]2O[C@H](C)C[C@H](N(C)C)[C@H]2O)[C@](C)(OC)C[C@@H](C)C(=O)[C@H](C)[C@H]2N(CCCCn3cnc(-c4cccnc4)c3)C(=O)O[C@]12C [Telithromycin] | – | – | – | No | – | – | 30 unbound human Cmax multiplier | ALT change in words [1]: concomitant increase; Human Cmax Total [2, 13]: 2790 nM; Albumin change in words [4]: decrease in albumin; Albumin IC50 Donor 1 [4, 12]: 13 unbound human Cmax multiplier
16 | Cc1ccc(C(=O)c2cc(O)c(O)c([N+](=O)[O-])c2)cc1 [Tolcapone] | 100 multiples of the unbound human Cmax | 30 multiples of the unbound human Cmax | 0.3 | No | 3 multiples of the unbound human Cmax | 39 multiples of the unbound human Cmax | – | Human Cmax Total [2, 13]: 47600 nM
